Data taken from US11472844B2, “Peptidomimetics, method of synthesis and uses thereof” (priority 2017, dated 2022).
*: point of attachment. X1 = CC[N+]1=C(/C=C/C=C/C=C2N(CCCCCC(=O)NCCN3C(=O)CC(*)C3=O)c3ccc(S(=O)(=O)O)cc3C2(C)C)C(C)(C)c2cc(S(=O)(=O)[O-])ccc21

Experiments:
[1] = test system: human neutrophil granules; assay: Fluorescent labelling of fixed purified human neutrophils; type: cell-based; details: 1 μg/mL
Protocol: Fixation and staining procedures. For microscopy studies, purified or cultured cells and polymerized lactoferrin were resuspended onto 24-well plates containing 12 mm coverslips in RMPI 1640+10 mM Hepes (when cultured in the autologous plasma) and centrifuged at 300×g for 10 min. Culture media were removed and cells were fixed in 4% Paraformaldehyde (PFA) for two hours. Fixed cells were washed three times in PBS+0.1% saponin (Sigma-Aldrich), prior immunolabeling with primary antibodies in the same buffer for 1 hour (Triton 0.1% can alternatively be used for cell permeabilization). After three additional washes in PBS+0.1% saponin, secondary antibodies and fluorescent markers were incubated for one hour. Coverslips were washed three time in PBS+0.1% saponin, three times in PBS, and three times in deionized H2O and mounted with prolong gold^tm mounting media.
(§1) Antibodies, fluorescent markers. For immunofluorescence assay, lactoferrin was detected with a mouse anti-lactoferrin primary monoclonal antibody (Hycult biotech, clone 265-1K1, 1:50 dilution) and an anti-mouse-FITC conjugated secondary antibody (1:1000). Nuclei were detected with DAPI (Life Technologies), Lyophilized MUB40 peptides (MUB40#1 (SEQ ID NO: 3)-Cy5, MUB40#2 (SEQ ID NO: 4)-Cy5, MUB40#3 (SEQ ID NO: 5)-Cy5, MUB40#4 (SEQ ID NO: 6)-Cy5, MUB40#1 (SEQ ID NO: 3)-Dylight, RI-MUB40 (SEQ ID NO: 2)-Cy5, and RI-MUB40 (SEQ ID NO: 2)-Biotin) were solubilized in a phosphate buffer pH8 at a 1 mg/mL concentration and used at a 1:1000 dilution. For PBMC staining CD19-APC (B lymphocytes), CD3-APC (T lymphocytes), and CD14-PercP (monocytes, macrophages) (BD Bioscience) were used at a 1:1000 dilution together with Dapi (1:1000) and MUB40-Cy5 (1 mg/mL). Actin was stained with Phalloidin-Rhodamine red X (RRX) (Jackson Immunoresearch Antibodies) used at a 1:1000 final dilution.
Polymorphonuclear neutrophils purification. Human polymorphonuclear neutrophils were purified as described previously (Monceaux et al. 2016). Briefly, plasma was removed by centrifugation (450×g, 15 min); blood cells were resuspended in 0.9% NaCl solution supplemented with 0.72% Dextran. After red blood cells sedimentation, white blood cells were pelleted and further separated on a two layer Percoll (GE Healthcare) (51%−42%) by centrifugation (at 240×g, 20 min). PBMC (top layer) were isolated from polymorphonuclear neutrophils (bottom layer). Red blood cells were removed from the latter fraction using CD235a (glycophorin) microbeads (negative selection) (Miltenyi Biotec). PBMCs and polymorphonuclear neutrophils were resuspended in the autologous plasma. Guinea pig and mouse polymorphonuclear neutrophils were purified with the same procedure.
Confocal microscopy. […]

[2] = test system: recruited neutrophils and secreted lactoferrin; assay: Labelling of human inflamed tissue biopsies; details: malignant fibrous histiocytoma and streptococcal skin abscess biopsies, 1 μg/mL
From the text: Human inflammatory tissues. Human biopsies from patients diagnosed for malignant fibrous histiocytoma and for a streptococcal skin abscess were collected and processed at the Kremlin Bicêtre Hospital, Anatomy and Pathological Histology Department. Tissue samples were fixed in formaldehyde and further embedded in paraffin. 10 μm sections were obtained using a microtome (Leica Biosystem). Tissues were labeled with a mouse anti-lactoferrin primary monoclonal antibody (Hycult biotech, clone 265-1K1, 1:50 dilution), MUB40-Cy5 (SEQ ID NO: 3) (1 μg/mL), and Dapi (1:1000 dilution) as described below.

[3] = test system: neutrophils recruited to mouse colon infected with Shigella sonnei; assay: Mouse model of shigellosis, staining of fixed colon sections; details: 1 μg/ml
Protocol: Mouse. The experimental protocol was approved by the french Ethic Committee Paris (number 20150042). Female 6 week-old BALB/cJRi mice from Charles River were orally gavaged with streptomycin (100 μL of 200 mg/ml solution) 24 hours prior to Shigella sonnei infection. Mice were orally gavaged with 10^10 CFUs S. sonnei carrying pMW211 expressing DsRed and monitored for 24 hours. At the end of the experiment, animals were sacrificed and tissue sections from the colon were extracted. Colon sections were placed in 4% paraformaldehyde (PFA) solution for 2 hours. PFA fixed tissue sections were passaged for 16 hours in 16% sucrose followed by 4 hours in 30% sucrose solutions. Fixed colon slices were embedded in OCT (VWR 361603E) and flash frozen in dry ice chilled 2-methylbutane. Frozen blocks were stored at −80 until sectioning. […] Tissue slices were prepared for fluorescence microscopy by incubation in 0.1% saponin for 1 hour followed by incubation with fluorescent markers specific for actin (phalloidin-FITC, Life Technology) and MUB40-Cy5 at a final 1 μg/ml concentration. […]
Spinning disk microscope. Mouse colons infected with S. sonnei pDsRed were imaged on a Bruker Opterra fluorescence microscope using a Zeiss Plan-Apochromat 63×/1.40 oil immersion lense and Prairie View software version 5.3. […]

[4] = test system: cystic fibrosis (CF) patients sputum; assay: CF patient sputum immunofluorescent staining; set-up: species or system human; details: together with anti-Muc2 and anti-Muc5ac antibodies, 1 μg/mL
Protocol: FIG. 4. CF patient sputum immunofluorescent staining with MUB40-Cy5 (SEQ ID NO: 3), anti-Muc2 and anti-Muc5ac antibodies (with secondary antibodies conjugated with FITC and Rhodamin respectively).
Muc2 was stained with an anti-Mucin2 antibody (green). Muc5ac was stained with an anti-Mucin5ac antibody (red). Tissue was additionally stained with MUB40-Cy5 (1 μg/mL, magenta). DNA was stained with Dapi (blue).

[5] = test system: Peripheral blood mononuclear cells (PBMC); assay: Fluorescent labelling of PBMC; type: cell-based, human; details: PBMC fixed in PFA 3%
From the text: as §1
Polymorphonuclear neutrophils purification. Human polymorphonuclear neutrophils were purified as described previously (Monceaux et al. 2016). Briefly, plasma was removed by centrifugation (450×g, 15 min); blood cells were resuspended in 0.9% NaCl solution supplemented with 0.72% Dextran. […]

[6] = test system: Human hematopoietic stem cells (CD34+); assay: Labelling of hematopoietic stem cells and derived neutrophils; type: cell-based
Protocol: Hematopoietic Stem cells (CD34+) purification, proliferation and differentiation. HSC were purified from cytapheresis products with a CD34 Microbead Kit Ultrapure, according to the manufacturer procedure (Miltenyi). Lin^−/CD34+ HSC purity yield was >98%. CD34+ HSC were cultured in StemSpan SFEM II supplemented with SCF (100 ng/ml), IL-3 (10 ng/ml), and IL-6 (100 ng/ml) at 37° C. with 5% CO2. Neutrophil differentiation was induced in StemSpan SFEM II containing G-CSF (10 ng/ml), SCF (100 ng/ml), and IL-3 (10 ng/ml) for 13 days at 37° C. with 5% CO2.

Substance: Ac-C(X1)TAEGIKKFEGDGYELFKDNFPAGEKFDNDDTNDQFYTVIF-NH2 [Cy5-MUB40#1]
- labelling of human neutrophil granules ([1]; listed as MUB40#1-Cy5): granular staining
- labelling of human neutrophil granules ([1]; listed as MUB40-Cy5): specifically labeled
- labelling of recruited neutrophils and secreted lactoferrin [2]: labeled
- labelling of recruited neutrophils [3]: specifically labeled
- labelling of CF patients sputum [4]: labeled
- staining of CD3+, CD14+ and CD19+ cells [5]: not stained
- labelling after differentiation in polymorphonuclear neutrophils ([6]; G-CSF, IL-3, IL-6, 2 weeks): positive staining
- labelling of hematopoietic stem cells ([6]; during proliferation): not labelled
